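Results reflect a 48-hour exposure of cells in 96-well plates to compound at five concentrations. At the TGI there is no net growth.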
Tests used:
Assay in all cases: growth of human tumour cells (NCI), 48 h
RXF 393 renal = test system: RXF 393 renal
MOLT-4 leukemia = test system: MOLT-4 leukemia
SNB-78 CNS = test system: SNB-78 CNS
OVCAR-5 ovarian = test system: OVCAR-5 ovarian
OVCAR-8 ovarian = test system: OVCAR-8 ovarian
HCT-15 colon = test system: HCT-15 colon
HOP-62 NSCLC = test system: HOP-62 NSCLC
OVCAR-3 ovarian = test system: OVCAR-3 ovarian
SW-620 colon = test system: SW-620 colon
SNB-19 CNS = test system: SNB-19 CNS
LXFL 529 NSCLC = test system: LXFL 529 NSCLC
SK-MEL-28 melanoma = test system: SK-MEL-28 melanoma
A498 renal = test system: A498 renal
K-562 leukemia = test system: K-562 leukemia
KM12 colon = test system: KM12 colon
NCI-H460 lung = test system: NCI-H460 lung
HL-60(TB) leukemia = test system: HL-60(TB) leukemia
SK-MEL-5 melanoma = test system: SK-MEL-5 melanoma
786-0 renal = test system: 786-0 renal
CCRF-CEM leukemia = test system: CCRF-CEM leukemia
NCI-H226 lung = test system: NCI-H226 lung
HCT-116 colon = test system: HCT-116 colon
TK-10 renal = test system: TK-10 renal
SK-OV-3 ovarian = test system: SK-OV-3 ovarian
SR leukemia = test system: SR leukemia
SF-295 CNS = test system: SF-295 CNS
EKVX NSCLC = test system: EKVX NSCLC
SF-539 CNS = test system: SF-539 CNS
UACC-257 melanoma = test system: UACC-257 melanoma
M14 melanoma = test system: M14 melanoma
DMS 114 small cell lung = test system: DMS 114 small cell lung
NCI-H522 lung = test system: NCI-H522 lung
OVCAR-4 ovarian = test system: OVCAR-4 ovarian
SF-268 CNS = test system: SF-268 CNS
CAKI-1 renal = test system: CAKI-1 renal
UO-31 renal = test system: UO-31 renal
SK-MEL-2 melanoma = test system: SK-MEL-2 melanoma
ACHN renal = test system: ACHN renal
HT29 colon = test system: HT29 colon
SNB-75 CNS = test system: SNB-75 CNS
DMS 273 small cell lung = test system: DMS 273 small cell lung
NCI-H23 lung = test system: NCI-H23 lung
M19-MEL melanoma = test system: M19-MEL melanoma
DLD-1 colon = test system: DLD-1 colon
U251 CNS = test system: U251 CNS
SN12C renal = test system: SN12C renal
A549 NSCLC = test system: A549 NSCLC
XF 498 CNS = test system: XF 498 CNS
UACC-62 melanoma = test system: UACC-62 melanoma
KM20L2 colon = test system: KM20L2 colon
HOP-92 NSCLC = test system: HOP-92 NSCLC
HCC-2998 colon = test system: HCC-2998 colon
IGROV1 ovarian = test system: IGROV1 ovarian
MALME-3M melanoma = test system: MALME-3M melanoma
LOX IMVI melanoma = test system: LOX IMVI melanoma
COLO 205 colon = test system: COLO 205 colon
RPMI-8226 leukemia = test system: RPMI-8226 leukemia

`CCOC(=O)C1CCCCN1C(=O)OCc1ccccc1` (stereo unspecified) gave a TGI (RXF 393 renal) of over 100 µM, a TGI (MOLT-4 leukemia) of over 100 µM and a TGI (SNB-78 CNS) of over 100 µM. The TGI (OVCAR-5 ovarian) was over 100 µM, the TGI (OVCAR-8 ovarian) was over 100 µM and the TGI (HCT-15 colon) was over 100 µM. For the same compound, the TGI (HOP-62 NSCLC) was over 100 µM, the TGI (OVCAR-3 ovarian) was over 100 µM and the TGI (SW-620 colon) was over 100 µM. The TGI (SNB-19 CNS) was over 100 µM, the TGI (LXFL 529 NSCLC) was over 100 µM and the TGI (SK-MEL-28 melanoma) was over 100 µM. It also gave a TGI (A498 renal) of over 100 µM, a TGI (K-562 leukemia) of over 100 µM and a TGI (KM12 colon) of over 100 µM. It also gave a TGI (NCI-H460 lung) of over 100 µM, a TGI (HL-60(TB) leukemia) of over 100 µM and a TGI (SK-MEL-5 melanoma) of over 100 µM. For the same compound, the TGI (786-0 renal) was over 100 µM, the TGI (CCRF-CEM leukemia) was over 100 µM and the TGI (NCI-H226 lung) was over 100 µM. The TGI (HCT-116 colon) was over 100 µM, the TGI (TK-10 renal) was over 100 µM and the TGI (SK-OV-3 ovarian) was over 100 µM. For the same compound, the TGI (SR leukemia) was over 100 µM, the TGI (SF-295 CNS) was over 100 µM and the TGI (EKVX NSCLC) was over 100 µM. For the same compound, the TGI (SF-539 CNS) was over 100 µM, the TGI (UACC-257 melanoma) was over 100 µM and the TGI (M14 melanoma) was over 100 µM. For the same compound, the TGI (DMS 114 small cell lung) was over 100 µM, the TGI (NCI-H522 lung) was over 100 µM and the TGI (OVCAR-4 ovarian) was over 100 µM. It also gave a TGI (SF-268 CNS) of over 100 µM, a TGI (CAKI-1 renal) of over 100 µM and a TGI (UO-31 renal) of over 100 µM. It also gave a TGI (SK-MEL-2 melanoma) of over 100 µM, a TGI (ACHN renal) of over 100 µM and a TGI (HT29 colon) of over 100 µM. The TGI (SNB-75 CNS) was over 100 µM, the TGI (DMS 273 small cell lung) was over 100 µM and the TGI (NCI-H23 lung) was over 100 µM. It also gave a TGI (M19-MEL melanoma) of over 100 µM, a TGI (DLD-1 colon) of over 100 µM and a TGI (U251 CNS) of over 100 µM. For the same compound, the TGI (SN12C renal) was over 100 µM, the TGI (A549 NSCLC) was over 100 µM and the TGI (XF 498 CNS) was over 100 µM. It also gave a TGI (UACC-62 melanoma) of over 100 µM.
Compound `CNCC(=O)Nc1ccc2c(c1)C(=O)c1ccc(NC(=O)CNC)cc1C2=O` has a TGI (RXF 393 renal) of 20.3 µM, a TGI (MOLT-4 leukemia) of 10.1 µM and a TGI (SNB-78 CNS) of 10.7 µM. For the same compound, the TGI (OVCAR-5 ovarian) was 34.8 µM, the TGI (OVCAR-8 ovarian) was 10.2 µM and the TGI (HCT-15 colon) was 23.2 µM. The TGI (HOP-62 NSCLC) was 9.98 µM, the TGI (OVCAR-3 ovarian) was 11.1 µM and the TGI (SW-620 colon) was 12.3 µM. The TGI (LXFL 529 NSCLC) was 12.3 µM, the TGI (SK-MEL-28 melanoma) was 10.1 µM and the TGI (A498 renal) was 28.5 µM. The TGI (K-562 leukemia) was 7.19 µM, the TGI (KM12 colon) was 10.4 µM and the TGI (NCI-H460 lung) was 12.3 µM. It also gave a TGI (SK-MEL-5 melanoma) of 17.9 µM, a TGI (786-0 renal) of 15.7 µM and a TGI (CCRF-CEM leukemia) of 11 µM. For the same compound, the TGI (NCI-H226 lung) was 20.3 µM, the TGI (HCT-116 colon) was 11.9 µM and the TGI (TK-10 renal) was 44.9 µM. It also gave a TGI (SK-OV-3 ovarian) of 3.81 µM, a TGI (SR leukemia) of 7.54 µM and a TGI (SF-295 CNS) of 18.6 µM. It also gave a TGI (SF-539 CNS) of 11.2 µM, a TGI (UACC-257 melanoma) of 16.1 µM and a TGI (KM20L2 colon) of 21.1 µM. For the same compound, the TGI (M14 melanoma) was 11.8 µM, the TGI (HOP-92 NSCLC) was 7 µM and the TGI (DMS 114 small cell lung) was 7.12 µM. The TGI (HCC-2998 colon) was 14.6 µM, the TGI (NCI-H522 lung) was 4.81 µM and the TGI (OVCAR-4 ovarian) was 5.68 µM. For the same compound, the TGI (CAKI-1 renal) was 20 µM, the TGI (IGROV1 ovarian) was 38 µM and the TGI (UO-31 renal) was 25.7 µM. For the same compound, the TGI (SK-MEL-2 melanoma) was 11.7 µM, the TGI (HT29 colon) was 16.2 µM and the TGI (SNB-75 CNS) was 27.1 µM. For the same compound, the TGI (DMS 273 small cell lung) was 10.7 µM, the TGI (NCI-H23 lung) was 31.6 µM and the TGI (MALME-3M melanoma) was 12.9 µM. It also gave a TGI (DLD-1 colon) of 29.9 µM, a TGI (U251 CNS) of 10.4 µM and a TGI (SN12C renal) of 11.9 µM. The TGI (A549 NSCLC) was 25.6 µM, the TGI (XF 498 CNS) was 8.25 µM and the TGI (UACC-62 melanoma) was 22.2 µM. The TGI (LOX IMVI melanoma) was 4.17 µM and the TGI (COLO 205 colon) was 11 µM.
`O=C1OC(O)c2cc3c(cc21)OCO3` (stereo unspecified) gave a TGI (RXF 393 renal) of over 100 µM, a TGI (MOLT-4 leukemia) of over 100 µM and a TGI (SNB-78 CNS) of over 100 µM. The TGI (OVCAR-8 ovarian) was over 100 µM, the TGI (HCT-15 colon) was over 100 µM and the TGI (HOP-62 NSCLC) was over 100 µM. For the same compound, the TGI (OVCAR-3 ovarian) was over 100 µM, the TGI (SW-620 colon) was over 100 µM and the TGI (SNB-19 CNS) was over 100 µM. The TGI (LXFL 529 NSCLC) was over 100 µM, the TGI (SK-MEL-28 melanoma) was over 100 µM and the TGI (A498 renal) was over 100 µM. For the same compound, the TGI (K-562 leukemia) was over 100 µM, the TGI (KM12 colon) was over 100 µM and the TGI (NCI-H460 lung) was over 100 µM. It also gave a TGI (HL-60(TB) leukemia) of over 100 µM, a TGI (SK-MEL-5 melanoma) of over 100 µM and a TGI (786-0 renal) of over 100 µM. It also gave a TGI (CCRF-CEM leukemia) of over 100 µM, a TGI (HCT-116 colon) of over 100 µM and a TGI (TK-10 renal) of over 100 µM. It also gave a TGI (SK-OV-3 ovarian) of over 100 µM, a TGI (SF-295 CNS) of over 100 µM and a TGI (EKVX NSCLC) of over 100 µM. For the same compound, the TGI (SF-539 CNS) was over 100 µM, the TGI (UACC-257 melanoma) was over 100 µM and the TGI (M14 melanoma) was over 100 µM. The TGI (HOP-92 NSCLC) was over 100 µM, the TGI (DMS 114 small cell lung) was over 100 µM and the TGI (HCC-2998 colon) was over 100 µM. The TGI (NCI-H522 lung) was over 100 µM, the TGI (OVCAR-4 ovarian) was over 100 µM and the TGI (SF-268 CNS) was over 100 µM. The TGI (CAKI-1 renal) was over 100 µM, the TGI (IGROV1 ovarian) was over 100 µM and the TGI (UO-31 renal) was over 100 µM. It also gave a TGI (SK-MEL-2 melanoma) of over 100 µM, a TGI (HT29 colon) of over 100 µM and a TGI (SNB-75 CNS) of over 100 µM. It also gave a TGI (DMS 273 small cell lung) of over 100 µM, a TGI (NCI-H23 lung) of over 100 µM and a TGI (MALME-3M melanoma) of over 100 µM. The TGI (M19-MEL melanoma) was over 100 µM, the TGI (DLD-1 colon) was over 100 µM and the TGI (U251 CNS) was over 100 µM. For the same compound, the TGI (RPMI-8226 leukemia) was over 100 µM, the TGI (SN12C renal) was over 100 µM and the TGI (A549 NSCLC) was over 100 µM. For the same compound, the TGI (XF 498 CNS) was over 100 µM, the TGI (UACC-62 melanoma) was over 100 µM and the TGI (LOX IMVI melanoma) was over 100 µM. The TGI (COLO 205 colon) was over 100 µM.

From PubChem BioAssay (NCI)
